target: Huntingtin (Homo sapiens, UniProt P42858); assay: Inhibition of Huntingtin protein (unknown origin) incubated for overnight in presence of MW1/MAB2166 monoclonal antibody by ELISA-based MSD electrochemiluminescence assay
Sequence (P42858 whole entry): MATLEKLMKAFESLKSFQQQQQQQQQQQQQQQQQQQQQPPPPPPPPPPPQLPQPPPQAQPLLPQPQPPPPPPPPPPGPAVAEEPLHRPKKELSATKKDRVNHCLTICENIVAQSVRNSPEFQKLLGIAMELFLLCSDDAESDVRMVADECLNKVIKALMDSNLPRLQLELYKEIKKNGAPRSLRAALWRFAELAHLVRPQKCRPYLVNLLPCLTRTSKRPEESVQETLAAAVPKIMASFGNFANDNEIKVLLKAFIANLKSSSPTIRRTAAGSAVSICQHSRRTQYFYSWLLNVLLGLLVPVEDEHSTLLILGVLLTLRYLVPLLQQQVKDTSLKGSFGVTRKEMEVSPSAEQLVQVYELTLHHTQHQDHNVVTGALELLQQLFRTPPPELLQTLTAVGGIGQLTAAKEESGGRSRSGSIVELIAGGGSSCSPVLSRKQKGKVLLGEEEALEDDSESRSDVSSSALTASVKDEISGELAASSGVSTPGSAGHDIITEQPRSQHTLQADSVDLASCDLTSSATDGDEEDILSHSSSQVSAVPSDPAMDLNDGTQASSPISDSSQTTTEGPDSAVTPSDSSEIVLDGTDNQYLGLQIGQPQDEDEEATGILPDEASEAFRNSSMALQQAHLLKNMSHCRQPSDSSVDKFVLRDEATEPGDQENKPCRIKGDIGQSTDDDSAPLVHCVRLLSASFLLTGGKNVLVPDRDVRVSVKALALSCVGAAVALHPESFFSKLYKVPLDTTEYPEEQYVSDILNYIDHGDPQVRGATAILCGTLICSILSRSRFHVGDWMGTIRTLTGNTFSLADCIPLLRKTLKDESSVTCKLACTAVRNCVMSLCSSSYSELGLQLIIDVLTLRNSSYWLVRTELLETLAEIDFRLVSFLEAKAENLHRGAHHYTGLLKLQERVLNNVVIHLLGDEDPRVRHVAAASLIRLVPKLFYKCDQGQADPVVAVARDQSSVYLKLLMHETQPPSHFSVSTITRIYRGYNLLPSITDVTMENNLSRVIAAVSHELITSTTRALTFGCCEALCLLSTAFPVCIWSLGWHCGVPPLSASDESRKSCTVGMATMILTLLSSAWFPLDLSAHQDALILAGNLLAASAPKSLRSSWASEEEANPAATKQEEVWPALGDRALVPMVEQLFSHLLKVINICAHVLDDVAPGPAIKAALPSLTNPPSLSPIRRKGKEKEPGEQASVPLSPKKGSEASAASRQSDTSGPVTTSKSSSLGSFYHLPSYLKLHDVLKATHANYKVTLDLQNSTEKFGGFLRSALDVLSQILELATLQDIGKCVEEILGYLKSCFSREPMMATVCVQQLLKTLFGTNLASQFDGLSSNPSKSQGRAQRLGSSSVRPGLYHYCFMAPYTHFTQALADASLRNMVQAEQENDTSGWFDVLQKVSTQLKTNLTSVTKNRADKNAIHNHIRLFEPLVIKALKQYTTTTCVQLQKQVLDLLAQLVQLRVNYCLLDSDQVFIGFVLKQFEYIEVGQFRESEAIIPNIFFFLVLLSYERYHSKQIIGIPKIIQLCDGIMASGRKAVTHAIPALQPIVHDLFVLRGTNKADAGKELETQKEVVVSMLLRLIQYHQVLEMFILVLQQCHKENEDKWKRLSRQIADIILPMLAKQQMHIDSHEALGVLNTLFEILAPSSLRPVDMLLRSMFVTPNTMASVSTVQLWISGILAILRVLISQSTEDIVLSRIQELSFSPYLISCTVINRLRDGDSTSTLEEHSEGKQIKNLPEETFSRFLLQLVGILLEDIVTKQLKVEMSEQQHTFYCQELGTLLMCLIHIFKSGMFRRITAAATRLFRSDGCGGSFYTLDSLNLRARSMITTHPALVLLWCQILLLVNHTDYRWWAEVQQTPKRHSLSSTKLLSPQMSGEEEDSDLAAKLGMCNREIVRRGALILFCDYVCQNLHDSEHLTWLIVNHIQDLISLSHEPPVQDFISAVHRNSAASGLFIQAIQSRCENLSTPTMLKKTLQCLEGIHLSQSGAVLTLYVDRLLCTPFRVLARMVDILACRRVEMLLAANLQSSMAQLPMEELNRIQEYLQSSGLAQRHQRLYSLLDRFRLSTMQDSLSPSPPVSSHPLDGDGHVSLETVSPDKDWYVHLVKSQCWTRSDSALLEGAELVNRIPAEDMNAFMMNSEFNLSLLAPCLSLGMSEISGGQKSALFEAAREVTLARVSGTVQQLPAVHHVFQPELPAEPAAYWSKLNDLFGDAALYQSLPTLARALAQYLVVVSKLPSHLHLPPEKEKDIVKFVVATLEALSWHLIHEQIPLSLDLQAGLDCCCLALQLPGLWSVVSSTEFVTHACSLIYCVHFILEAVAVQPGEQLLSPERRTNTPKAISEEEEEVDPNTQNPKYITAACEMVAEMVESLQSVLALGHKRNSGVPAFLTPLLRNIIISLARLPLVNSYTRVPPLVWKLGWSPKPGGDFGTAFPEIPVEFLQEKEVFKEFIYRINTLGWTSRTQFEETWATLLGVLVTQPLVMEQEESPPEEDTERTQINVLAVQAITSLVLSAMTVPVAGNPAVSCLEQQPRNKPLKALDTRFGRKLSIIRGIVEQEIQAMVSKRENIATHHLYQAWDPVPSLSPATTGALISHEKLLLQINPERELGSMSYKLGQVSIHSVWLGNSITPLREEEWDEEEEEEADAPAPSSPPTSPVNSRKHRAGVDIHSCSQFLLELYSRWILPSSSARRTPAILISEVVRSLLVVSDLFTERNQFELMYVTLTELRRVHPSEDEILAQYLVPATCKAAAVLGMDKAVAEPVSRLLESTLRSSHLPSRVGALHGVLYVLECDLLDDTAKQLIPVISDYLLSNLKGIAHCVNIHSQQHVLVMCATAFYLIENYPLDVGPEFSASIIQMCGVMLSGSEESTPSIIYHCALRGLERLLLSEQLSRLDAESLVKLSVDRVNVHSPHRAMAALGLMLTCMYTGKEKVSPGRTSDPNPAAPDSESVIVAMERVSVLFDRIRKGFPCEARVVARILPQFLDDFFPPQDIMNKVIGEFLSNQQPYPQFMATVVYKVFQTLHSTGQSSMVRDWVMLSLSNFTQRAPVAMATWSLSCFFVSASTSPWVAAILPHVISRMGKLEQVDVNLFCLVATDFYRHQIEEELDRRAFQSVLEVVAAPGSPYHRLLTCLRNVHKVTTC

Structure (SMILES) | IC50 [nM]
CN(c1nc2nnc(-c3ccc(-c4cn[nH]c4)cc3O)cc2s1)C1CCN(C2CC2)CC1 | ≤ 100
CN(c1nc2nnc(-c3ccc(-c4c[nH]nc4F)cc3O)cc2s1)C1CCNC1 (stereo unspecified) | ≤ 100
Oc1cc(-c2cn[nH]c2)ccc1-c1cc2sc(N3CCC34CCNCC4)nc2nn1 | ≤ 100
Cc1nc2ccc(-c3cc(F)c4nc(C5CCNCC5)sc4c3)cc2o1 | ≤ 100
Cc1cn2nc(-c3cc(F)c4nc(OC5CCN(C)CC5)sc4c3)cc(C)c2n1 | ≤ 100
CN1CC2(C1)CN(c1nc3nnc(-c4ccc(-c5c[nH]nc5F)cc4O)cc3s1)C2 | ≤ 100

From ChEMBL document CHEMBL4706724, “Novel Substituted Benzothiazole Compounds for Treating Huntington's Disease” (ACS Med Chem Lett, 2021)
